Measurements from patent US12324802B2, “Modulators of cystic fibrosis transmembrane conductance regulator” (Vertex Pharmaceuticals Incorporated, priority 2020, dated 2025).
Read-outs that look alike come from different tables or passages of the source.

Key:
[1] = from CC(C)(C)OC(=O)NCC(C)(C)OCCC[C@@](OCc1ccccc1)(c1nnc(-c2nc(Cl)c(C(F)(F)F)cc2[N+](=O)[O-])o1)C(F)(F)F; snar bond; 14-membered ring; TFA; then DIEA; DCM; 0.96 mM; 25.0 °C; 2 steps
[2] = not given; remark: listed apart in the source

CC1(C)CNc2nc(c([N+](=O)[O-])cc2C(F)(F)F)C2=NN=C(O2)[C@@](OCc2ccccc2)(C(F)(F)F)CCCO1
ring closure, crude yield [1]: 99%

CN1CCN(C)c2nc(c(NC(=O)OC(C)(C)C)cc2C(F)(F)F)C2=NN=C(O2)C(OCc2ccccc2)(C(F)(F)F)CCC1=O (centres unmarked)
ring closure, yield after HPLC (from CNCCN(C)c1nc(-c2nnc(C(CCC(=O)O)(OCc3ccccc3)C(F)(F)F)o2)c(NC(=O)OC(C)(C)C)cc1C(F)(F)F, amide bond, 14-membered ring, HATU/DIEA, DMF, 9.16 mM, 25.0 °C, 3.0 h): 70%

6-benzyloxy-12,12-dimethyl-17-nitro-6,15-bis(trifluoromethyl)-19-oxa-3,4,13,18-tetrazatricyclo[12.3.1.12,5]nonadeca-1(18),2,4,8,14,16-hexaen-7-ol (E/Z olefin mixture, cis diol)
ring closure, yield after HPLC (rcm bond, 14-membered ring, Zhan catalyst-1B, 70.0 °C): 49%

CC(=O)OC1C=CC[C@](OCc2ccccc2)(C(F)(F)F)C2=NN=C(O2)c2nc(c(C(F)(F)F)cc2[N+](=O)[O-])NC(C)(C)C1 (mixture of isomers)
ring closure, isolated yield ([2]; from C=CC[C@@](OCc1ccccc1)(c1nnc(-c2nc(NC(C)(C)CC(C=C)OC(C)=O)c(C(F)(F)F)cc2[N+](=O)[O-])o1)C(F)(F)F, rcm bond, 14-membered ring, Zhan catalyst-1B, toluene, 10.6 mM, 110.0 °C, 19.0 h): 20%

CC(C)(C)OC(=O)N(C(=O)OC(C)(C)C)c1cc(C(F)(F)F)c2nc1-c1nnc(o1)[C@@](OCc1ccccc1)(C(F)(F)F)CCC=CCC(c1ccccn1)N2 (mixture of isomers)
ring closure, isolated yield ([2]; from C=CCC[C@@](OCc1ccccc1)(c1nnc(-c2nc(NC(CC=C)c3ccccn3)c(C(F)(F)F)cc2N(C(=O)OC(C)(C)C)C(=O)OC(C)(C)C)o1)C(F)(F)F, rcm bond, 14-membered ring, Zhan catalyst-1B, DCE, 1.5 mM, 85.0 °C, 12.0 h): 24%

CC(C)(C)OC(=O)Nc1cc(C(F)(F)F)c2nc1-c1nnc(o1)C(OCc1ccccc1)(C(F)(F)F)CC=CC[C@@H]1CCCN21 (mixture of isomers)
ring closure, isolated yield ([2]; from C=CC[C@@H]1CCCN1c1nc(-c2nnc(C(CC=C)(OCc3ccccc3)C(F)(F)F)o2)c(NC(=O)OC(C)(C)C)cc1C(F)(F)F, rcm bond, 13-membered ring, Zhan-1B (two charges), DCE, 6.47 mM, 80.0 °C, 36.0 h): 6.5%

CC(C)(C)OC(=O)Nc1cc(C(F)(F)F)c2nc1-c1nnc(o1)C(OCc1ccccc1)(C(F)(F)F)CCC=CC1CCCN21 (mixture of isomers)
ring closure, yield after HPLC (from C=CCCC(OCc1ccccc1)(c1nnc(-c2nc(N3CCCC3C=C)c(C(F)(F)F)cc2NC(=O)OC(C)(C)C)o1)C(F)(F)F, rcm bond, 13-membered ring, Zhan-1B (two charges), DCE, 6.25 mM, 85.0 °C, 23.0 h): 3%

CC(C)(C)OC(=O)Nc1cc(C(F)(F)F)c2nc1-c1nnc(o1)[C@@](O)(C(F)(F)F)c1cc(ccc1F)C=CC[C@@H]1CCCN21 (mixture of isomers)
ring closure, isolated yield ([2]; from C=CC[C@@H]1CCCN1c1nc(-c2nnc([C@](O)(c3cc(I)ccc3F)C(F)(F)F)o2)c(NC(=O)OC(C)(C)C)cc1C(F)(F)F, cc_pd bond, 15-membered ring, Pd(OAc)2/P(o-tol)3/Et3N, MeCN, 9.5 mM, 80.0 °C, 22.0 h): 58%

CC(C)(C)OC(=O)Nc1cc(C(F)(F)F)c2nc1-c1nnc(o1)[C@@](OCc1ccccc1)(C(F)(F)F)CCC=CCC(C(=O)N1CCCC1)N2 (mixture of isomers)
ring closure, isolated yield ([2]; from C=CCC[C@@](OCc1ccccc1)(c1nnc(-c2nc(NC(CC=C)C(=O)N3CCCC3)c(C(F)(F)F)cc2NC(=O)OC(C)(C)C)o1)C(F)(F)F, rcm bond, 14-membered ring, Zhan catalyst-1B, DCE, 1.4 mM, 75.0 °C, 2.0 h): 66%

CC(C)(C)OC(=O)Nc1cc(C(F)(F)F)c2nc1-c1nnc(o1)[C@](O)(C(F)(F)F)c1cc(ccc1F)C=CC[C@@H]1CCCN21 (mixture of isomers)
ring closure, isolated yield ([2]; from C=CC[C@@H]1CCCN1c1nc(-c2nnc([C@@](O)(c3cc(I)ccc3F)C(F)(F)F)o2)c(NC(=O)OC(C)(C)C)cc1C(F)(F)F, cc_pd bond, 15-membered ring, Pd(OAc)2/P(o-tol)3/Et3N, MeCN, 9.5 mM, 80.0 °C, 22.0 h): 56%

CC1(C)CC=CCC[C@](OCc2ccccc2)(C(F)(F)F)C2=NN=C(O2)c2nc(c(C(F)(F)F)cc2[N+](=O)[O-])N1 (mixture of isomers)
ring closure, isolated yield ([2]; from [2H]C([2H])([2H])C(CC=C)(Nc1nc(-c2nnc([C@@](CCC=C)(OCc3ccccc3)C(F)(F)F)o2)c([N+](=O)[O-])cc1C(F)(F)F)C([2H])([2H])[2H], rcm bond, 14-membered ring, Zhan catalyst-1B, DCE, 11.0 mM, 75.0 °C, 3.0 h): 37.8%

CC1(C)CCC=CC[C@](OCc2ccccc2)(C(F)(F)F)C2=NN=C(O2)c2nc(c(C(F)F)cc2[N+](=O)[O-])N1 (mixture of isomers)
ring closure, yield after HPLC (from C=CCCC(C)(C)Nc1nc(-c2nnc([C@@](CC=C)(OCc3ccccc3)C(F)(F)F)o2)c([N+](=O)[O-])cc1C(F)F, rcm bond, 14-membered ring, Zhan catalyst-1B, DCE, 5.67 mM, 65.0 °C, 4.5 h): 20%

CC1(COCc2ccccc2)CC=CCC[C@](OCc2ccccc2)(C(F)(F)F)C2=NN=C(O2)c2nc(c(C(F)(F)F)cc2[N+](=O)[O-])N1 (mixture of isomers)
ring closure, isolated yield ([2]; from C=CCC[C@@](OCc1ccccc1)(c1nnc(-c2nc(NC(C)(CC=C)COCc3ccccc3)c(C(F)(F)F)cc2[N+](=O)[O-])o1)C(F)(F)F, rcm bond, 14-membered ring, Zhan catalyst-1B, DCE, 2.83 mM, 60.0 °C, 3.17 h): 75%

O=[N+]([O-])c1cc(C(F)(F)F)c2nc1-c1nnc(o1)-c1c(cccc1OCc1ccccc1)CC=CC[C@@H]1CCCN21 (mixture of isomers)
ring closure, isolated yield ([2]; from C=CCc1cccc(OCc2ccccc2)c1-c1nnc(-c2nc(N3CCC[C@H]3CC=C)c(C(F)(F)F)cc2[N+](=O)[O-])o1, rcm bond, 14-membered ring, Zhan-1B, DCE, 7.24 mM, 70.0 °C, 5.0 h): 26%

O=[N+]([O-])c1cc(C(F)(F)F)c2nc1-c1nnc(o1)[C@@](OCc1ccccc1)(C(F)(F)F)CCC=CCC(Cc1ccccc1)N2 (mixture of isomers)
ring closure, isolated yield ([2]; from C=CCC[C@@](OCc1ccccc1)(c1nnc(-c2nc(NC(CC=C)Cc3ccccc3)c(C(F)(F)F)cc2[N+](=O)[O-])o1)C(F)(F)F, rcm bond, 14-membered ring, Zhan catalyst-1B, DCE, 9.18 mM, 75.0 °C, 2.0 h): 19%

O=[N+]([O-])c1cc(C(F)(F)F)c2nc1-c1nnc(o1)[C@@](OCc1ccccc1)(C(F)(F)F)CCC=CCC(c1ncccn1)N2 (mixture of isomers)
ring closure, isolated yield ([2]; from C=CCC[C@@](OCc1ccccc1)(c1nnc(-c2nc(NC(CC=C)c3ncccn3)c(C(F)(F)F)cc2[N+](=O)[O-])o1)C(F)(F)F, rcm bond, 14-membered ring, Zhan catalyst-1B, DCE, 2.66 mM, 83.0 °C, 16.0 h): 49%

(6R)-6-benzyloxy-17-(tert-butoxycarbonylamino)-6,15-bis(trifluoromethyl)-19-oxa-3,4,13,18-tetrazatricyclo[12.3.1.12,5]nonadeca-1(17),2,4,9,14(18),15-hexaene-12-carboxylic acid (E/Z mixture)
ring closure, isolated yield ([2]; rcm bond, 14-membered ring, Zhan catalyst-1B, then LiOH, DCE, 0.99 mM, 75.0 °C, 2 steps): 21%
